Results reported in patent publication US20260125382A1, “COMPOUNDS FOR INHIBITING OR DEGRADING CDK2 AND/OR CDK9 AND MEDICINAL USE THEREOF” (KOREA RESEARCH INSTITUTE OF CHEMICAL TECHNOLOGY, priority 2022, published 2026).

Key:
CDK9 = molecular target: T1, CDK9 (Homo sapiens, UniProt P50750); assay: CDK protein degradation activity (Western blotting), CDK9; format: cell-based; details: MDA-MB-231 cells, 16 hours, Western blot
T1 construct: endogenous in cells; host or cells: MDA-MB-231
Protocol: (§1) In order to evaluate the CDK protein degradation activity of the compounds according to the present invention, the following experiment was conducted.
(§2) MDA-MB-231 cells were seeded at 5×10^5 cells per well in a 6-well plate. The next day, the compounds were treated in each well to achieve final concentrations of 100 nM, 1 μM, and 10 μM. For the control group, an equal amount of DMSO was treated in the well as the compound. After 16 hours of treatment, cells were collected, and cell lysates were prepared using Triton X-100 lysis buffer (50 mM HEPES, pH 7.5, 40 mM NaCl, 1% Triton X-100, 1 mM EDTA, 1 mM EGTA, 10 mM pyrophosphate, 10 mM β-glycerophosphate, 50 mM NaF, 1 mM NaVO4, protease inhibitor). Cell lysates were quantified and separated by size using sodium dodecyl sulfate-polyacrylamide gel electrophoresis (SDS-PAGE). Western blotting was then performed using antibodies that recognize CDK2, CDK9, and tubulin, respectively. The results obtained by Western blotting were quantitatively analyzed using the ImageJ program, and representative images according to the experimental results are shown in FIG. 1.

CDK2 = molecular target: T2, CDK2 (Homo sapiens, UniProt P24941); assay: CDK protein degradation activity (Western blotting), CDK2; format: cell-based; details: MDA-MB-231 cells, 16 hours, Western blot
T2 construct: endogenous in cells; host or cells: MDA-MB-231
Protocol: as §1, §2

T1 sequence (P50750 whole entry): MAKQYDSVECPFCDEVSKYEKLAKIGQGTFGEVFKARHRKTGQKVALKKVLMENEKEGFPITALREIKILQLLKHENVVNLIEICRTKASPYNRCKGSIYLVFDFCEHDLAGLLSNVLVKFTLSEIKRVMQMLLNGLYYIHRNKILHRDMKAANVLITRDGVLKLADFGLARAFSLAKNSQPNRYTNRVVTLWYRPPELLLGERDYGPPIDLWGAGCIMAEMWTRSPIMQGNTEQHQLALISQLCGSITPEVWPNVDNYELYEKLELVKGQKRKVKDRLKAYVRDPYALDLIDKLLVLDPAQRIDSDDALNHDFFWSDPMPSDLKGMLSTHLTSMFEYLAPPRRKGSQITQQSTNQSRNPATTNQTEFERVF

Row | Enzyme degradation CDK9 (% remaining) @ 0.1 μM (CDK9) | Enzyme degradation CDK9 (% remaining) @ 1 μM (CDK9) | Enzyme degradation CDK9 (% remaining) @ 10 μM (CDK9) | Enzyme degradation CDK2 (% remaining) @ 0.1 μM (CDK2) | Enzyme degradation CDK2 (% remaining) @ 1 μM (CDK2) | Enzyme degradation CDK2 (% remaining) @ 10 μM (CDK2) | Structure (SMILES)
1 | 10% | 0% | 0% | 70% | 40% | 30% | Cc1cccc(C(=O)N[C@H]2C[C@@H](n3cnc4c(NC5CCN(CCC6CCN(C(=O)COc7ccc8c(c7)C(=O)N(C7CCC(=O)NC7=O)C8=O)CC6)CC5)ncnc43)C2)n1 (stereo partly drawn) [Compound 31, N-((1s,3s)-3-(6-((1-(2-(1-(2-((2-(2,6-dioxopiperidin-3-yl)-1,3-dioxoisoindolin-5-yl)oxy)acetyl)piperidin-4-yl)ethyl)piperidin-4-yl)amino)-9H-purin-9-yl)cyclobutyl)-6-methylpicolinamide]
2 | 50% | 0% | 0% | 60% | 20% | 20% | Cc1cccc(C(=O)NC2CC(n3cnc4c(NC5CCN(CCC6CCN(C(=O)COc7cccc8c7C(=O)N([C@H]7CCC(=O)NC7=O)C8=O)CC6)CC5)ncnc43)C2)n1 (stereo partly drawn) [Compound 32, N-((1s,3s)-3-(6-((1-(2-(1-(2-((2-(2,6-dioxopiperidin-3-yl)-1,3-dioxoisoindolin-4-yl)oxy)acetyl)piperidin-4-yl)ethyl)piperidin-4-yl)amino)-9H-purin-9-yl)cyclobutyl)-6-methylpicolinamide]
3 | 0% | 0% | 10% | 50% | 50% | 100% | Cc1cccc(C(=O)N[C@H]2C[C@@H](n3cnc4c(NC5CCN(CCC6CCN(C(=O)CNc7cccc8c7C(=O)N(C7CCC(=O)NC7=O)C8=O)CC6)CC5)ncnc43)C2)n1 (stereo partly drawn) [Compound 34, N-((1s,3s)-3-(6-((1-(2-(1-((2-(2,6-dioxopiperidin-3-yl)-1,3-dioxoisoindolin-4-yl)glycyl)piperidin-4-yl)ethyl)piperidin-4-yl)amino)-9H-purin-9-yl)cyclobutyl)-6-methylpicolinamide]
4 | 0% | 10% | 10% | 100% | 60% | 60% | Cc1cccc(C(=O)N[C@H]2C[C@@H](n3cnc4c(NC5CCN(CCC6CCN(c7ccc8c(c7)C(=O)N([C@H]7CCC(=O)NC7=O)C8=O)CC6)CC5)ncnc43)C2)n1 [Compound 35, N-((1s,3s)-3-(6-((1-(2-(1-(2-(2,6-dioxopiperidin-3-yl)-1,3-dioxoisoindolin-5-yl)piperidin-4-yl)ethyl)piperidin-4-yl)amino)-9H-purin-9-yl)cyclobutyl)-6-methylpicolinamide]
5 | 30% | 10% | 20% | 100/100/100% | 100/100/100% | 100/100/100% | Cc1cccc(C(=O)N[C@H]2C[C@@H](n3cnc4c(NC5CCN(CCC6CCN(c7cccc8c7C(=O)N([C@H]7CCC(=O)CC7=O)C8=O)CC6)CC5)ncnc43)C2)n1 [Compound 36, N-((1s,3s)-3-(6-((1-(2-(1-(2-(2,4-dioxocyclohexyl)-1,3-dioxoisoindolin-4-yl)piperidin-4-yl)ethyl)piperidin-4-yl)amino)-9H-purin-9-yl)cyclobutyl)-6-methylpicolinamide]
6 | 0/0/0% | 0/0/0% | 0/0/0% | 40% | 30% | 20% | Cc1cccc(C(=O)N[C@H]2C[C@@H](n3cnc4c(NC5CCN(CCCN6CCN(C(=O)CNc7cccc8c7C(=O)N([C@H]7CCC(=O)NC7=O)C8=O)CC6)CC5)ncnc43)C2)n1 [Compound 38, N-((1s,3s)-3-(6-((1-(3-(4-((2-(2,6-dioxopiperidin-3-yl)-1,3-dioxoisoindolin-4-yl)glycyl)piperazin-1-yl)propyl)piperidin-4-yl)amino)-9H-purin-9-yl)cyclobutyl)-6-methylpicolinamide]
7 | 30% | 0% | 10% | 100% | 60% | 30% | Cc1cccc(C(=O)NC2CC(n3cnc4c(NC5CCN(CCCN6CCN(c7cccc8c7C(=O)N([C@H]7CCC(=O)NC7=O)C8=O)CC6)CC5)ncnc43)C2)n1 (stereo partly drawn) [Compound 42, N-((1s,3s)-3-(6-((1-(3-(4-(2-(2,6-dioxopiperidin-3-yl)-1,3-dioxoisoindolin-4-yl)piperazin-1-yl)propyl)piperidin-4-yl)amino)-9H-purin-9-yl)cyclobutyl)-6-methylpicolinamide]
8 | 50% | 0% | 0% | 90% | 60% | 70% | Cc1cccc(C(=O)N[C@H]2C[C@@H](n3cnc4c(NC5CCN(CCOC6CCN(C(=O)COc7ccc8c(c7)C(=O)N([C@H]7CCC(=O)NC7=O)C8=O)CC6)CC5)ncnc43)C2)n1 [Compound 43, N-((1s,3s)-3-(6-((1-(2-((1-(2-((2-(2,6-dioxopiperidin-3-yl)-1,3-dioxoisoindolin-5-yl)oxy)acetyl)piperidin-4-yl)oxy)ethyl)piperidin-4-yl)amino)-9H-purin-9-yl)cyclobutyl)-6-methylpicolinamide]
9 | 0/0/0% | 0/0/0% | 0/0/0% | 80% | 60% | 90% | Cc1cccc(C(=O)N[C@H]2C[C@@H](n3cnc4c(NC5CCN(CCOC6CCN(C(=O)CNc7ccc8c(c7)C(=O)N(C7CCC(=O)NC7=O)C8=O)CC6)CC5)ncnc43)C2)n1 (stereo partly drawn) [Compound 45, N-((1s,3s)-3-(6-((1-(2-((1-((2-(2,6-dioxopiperidin-3-yl)-1,3-dioxoisoindolin-5-yl)glycyl)piperidin-4-yl)oxy)ethyl)piperidin-4-yl)amino)-9H-purin-9-yl)cyclobutyl)-6-methylpicolinamide]
10 | 20% | 10% | 30% | 80% | 90% | 100% | Cc1cccc(C(=O)NC2CC(n3cnc4c(NC5CCN(CCOC6CCN(C(=O)CNc7cccc8c7C(=O)N([C@H]7CCC(=O)NC7=O)C8=O)CC6)CC5)ncnc43)C2)n1 (stereo partly drawn) [Compound 46, N-((1s,3s)-3-(6-((1-(2-((1-((2-(2,6-dioxopiperidin-3-yl)-1,3-dioxoisoindolin-4-yl)glycyl)piperidin-4-yl)oxy)ethyl)piperidin-4-yl)amino)-9H-purin-9-yl)cyclobutyl)-6-methylpicolinamide]
